In patent US20250230193A1, “CYCLIC COMPOUND HAVING SELECTIVE KRAS INHIBITORY EFFECT ON HRAS AND NRAS” (CHUGAI SEIYAKU KABUSHIKI KAISHA, priority 2022, published 2025):
Where a SMILES comes first, the peptide text is derived from it. Bridges are numbered along the chain shown (N, C = ends). [ ]: non-standard residue; d: D form. hPhe(3-Cl-4-CF3) = N[C@@H](CCc1ccc(C(F)(F)F)c(Cl)c1)C(=O)O; NPrPhe(4-CF3) = CCCN[C@@H](Cc1ccc(C(F)(F)F)cc1)C(=O)O; NMeGly(cPent) = CN[C@H](C(=O)O)C1CCCC1; Pro(4,4-F2) = O=C(O)[C@@H]1CC(F)(F)CN1; Hyp = O=C(O)[C@@H]1C[C@@H](O)CN1; NMeD = CN[C@@H](CC(=O)O)C(=O)O; NMeL = CN[C@@H](CC(C)C)C(=O)O; Ac5c = NC1(C(=O)O)CCCC1; Ac4c = NC1(C(=O)O)CCC1; NEtG = CCNCC(=O)O; Sar = CNCC(=O)O

Assays:
[1] = biological target: GDP-bound HRAS wild-type protein (Homo sapiens, UniProt P01112); assay: Binding to HRAS by surface plasmon resonance (SPR), Single Cycle Kinetics; settings: KD ratio HRAS/KRAS, SPR
[2] = biological target: GDP-bound NRAS wild-type protein (Homo sapiens, UniProt P01111); assay: Binding to NRAS by surface plasmon resonance (SPR), Single Cycle Kinetics; settings: KD ratio NRAS/KRAS, SPR
GDP-bound NRAS wild-type protein, sequence (P01111 whole entry): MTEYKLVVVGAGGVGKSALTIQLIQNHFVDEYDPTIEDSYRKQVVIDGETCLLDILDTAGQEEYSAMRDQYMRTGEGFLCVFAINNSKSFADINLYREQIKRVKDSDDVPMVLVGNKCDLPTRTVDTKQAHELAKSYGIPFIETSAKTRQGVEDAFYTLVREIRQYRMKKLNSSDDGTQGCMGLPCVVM

GDP-bound HRAS wild-type protein, sequence (P01112 whole entry): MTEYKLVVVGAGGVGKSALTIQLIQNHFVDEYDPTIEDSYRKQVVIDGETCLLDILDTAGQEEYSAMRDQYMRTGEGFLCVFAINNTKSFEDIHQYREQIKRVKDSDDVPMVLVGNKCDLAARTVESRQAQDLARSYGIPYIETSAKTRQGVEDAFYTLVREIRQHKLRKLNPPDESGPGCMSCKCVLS

Compound | HRAS/KRAS (ratio of KD value with respect to GDP-bound HRAS wild-type protein to KD value with respect to KRAS) [1] | NRAS/KRAS (ratio of KD value with respect to GDP-bound NRAS wild-type protein to KD value with respect to KRAS) [2]
CCCN1C(=O)CN(C)C(=O)CN(C)C(=O)[C@H]([C@@H](C)CC)NC(=O)[C@H](CC(C)C)N(C)C(=O)C[C@@H](C(=O)N(C)C)N(C)C(=O)[C@H](C2CCCC2)N(C)C(=O)C2(CCCC2)NC(=O)[C@@H]2CC(F)(F)CN2C(=O)[C@H](CCc2ccc(C(F)(F)F)c(Cl)c2)NC(=O)CN(C)C(=O)[C@@H]1Cc1ccc(C(F)(F)F)cc1 [PP0413] ([NMeL]I[Sar][Sar][NPrPhe(4-CF3)][Sar][hPhe(3-Cl-4-CF3)][Pro(4,4-F2)][Ac5c][NMeGly(cPent)][NMeD]-NMe2; lactam N-11) | C (A compound having a KD ratio of 0.1 or more and less than 3 is denoted as C) | C (A compound having a KD ratio of 0.1 or more and less than 3 is denoted as C)
CCCN1C(=O)CN(C)C(=O)CN(C)C(=O)[C@H]([C@@H](C)CC)NC(=O)[C@H](CC(C)C)N(C)C(=O)C[C@@H](C(=O)N(C)C)N(C)C(=O)[C@H](C2CCCC2)N(C)C(=O)C2(CCC2)NC(=O)[C@@H]2CC(F)(F)CN2C(=O)[C@H](CCc2ccc(C(F)(F)F)c(Cl)c2)NC(=O)CN(C)C(=O)[C@@H]1Cc1ccc(C(F)(F)F)cc1 [PP0414] ([NMeL]I[Sar][Sar][NPrPhe(4-CF3)][Sar][hPhe(3-Cl-4-CF3)][Pro(4,4-F2)][Ac4c][NMeGly(cPent)][NMeD]-NMe2; lactam N-11) | C (A compound having a KD ratio of 0.1 or more and less than 3 is denoted as C) | B (a compound having 3 or more and less than 10 is denoted as B)
CCCN1C(=O)CN(C)C(=O)CN(C)C(=O)[C@H]([C@@H](C)CC)NC(=O)[C@H](CC(C)C)N(C)C(=O)C[C@@H](C(=O)N(C)C)N(C)C(=O)[C@H](C2CCCC2)N(C)C(=O)C2(CCCC2)NC(=O)[C@@H]2C[C@@H](OCC)CN2C(=O)[C@H](CCc2ccc(C(F)(F)F)c(Cl)c2)NC(=O)CN(C)C(=O)[C@@H]1Cc1ccc(C(F)(F)F)cc1 [PP0415] ([NMeL]I[Sar][Sar][NPrPhe(4-CF3)][Sar][hPhe(3-Cl-4-CF3)][Hyp](Et)[Ac5c][NMeGly(cPent)][NMeD]-NMe2; lactam N-11) | B (a compound having 3 or more and less than 10 is denoted as B) | B (a compound having 3 or more and less than 10 is denoted as B)
CCCN1C(=O)CN(C)C(=O)CN(C)C(=O)[C@H]([C@@H](C)CC)NC(=O)[C@H](CC(C)C)N(C)C(=O)C[C@@H](C(=O)N(C)C)N(C)C(=O)[C@H](C2CCCC2)N(C)C(=O)C2(CCC2)NC(=O)[C@@H]2C[C@@H](OCC)CN2C(=O)[C@H](CCc2ccc(C(F)(F)F)c(Cl)c2)NC(=O)CN(C)C(=O)[C@@H]1Cc1ccc(C(F)(F)F)cc1 [PP0416] ([NMeL]I[Sar][Sar][NPrPhe(4-CF3)][Sar][hPhe(3-Cl-4-CF3)][Hyp](Et)[Ac4c][NMeGly(cPent)][NMeD]-NMe2; lactam N-11) | C (A compound having a KD ratio of 0.1 or more and less than 3 is denoted as C) | B (a compound having 3 or more and less than 10 is denoted as B)
CCCN1C(=O)CN(C)C(=O)CNC(=O)[C@H]([C@@H](C)CC)NC(=O)[C@H](CC(C)C)N(C)C(=O)C[C@@H](C(=O)N(C)C)N(C)C(=O)[C@H](C2CCCC2)N(C)C(=O)C2(CCCC2)NC(=O)[C@@H]2CCCN2C(=O)[C@H](CCc2ccc(C(F)(F)F)c(Cl)c2)NC(=O)CN(C)C(=O)[C@@H]1Cc1ccc(C(F)(F)F)cc1 [PP0417] ([NMeL]IG[Sar][NPrPhe(4-CF3)][Sar][hPhe(3-Cl-4-CF3)]P[Ac5c][NMeGly(cPent)][NMeD]-NMe2; lactam N-11) | C (A compound having a KD ratio of 0.1 or more and less than 3 is denoted as C) | B (a compound having 3 or more and less than 10 is denoted as B)
CCCN1C(=O)CN(C)C(=O)CNC(=O)[C@H]([C@@H](C)CC)NC(=O)[C@H](CC(C)C)N(C)C(=O)C[C@@H](C(=O)N(C)C)N(C)C(=O)[C@H](C2CCCC2)N(C)C(=O)C2(CCC2)NC(=O)[C@@H]2CCCN2C(=O)[C@H](CCc2ccc(C(F)(F)F)c(Cl)c2)NC(=O)CN(C)C(=O)[C@@H]1Cc1ccc(C(F)(F)F)cc1 [PP0418] ([NMeL]IG[Sar][NPrPhe(4-CF3)][Sar][hPhe(3-Cl-4-CF3)]P[Ac4c][NMeGly(cPent)][NMeD]-NMe2; lactam N-11) | C (A compound having a KD ratio of 0.1 or more and less than 3 is denoted as C) | B (a compound having 3 or more and less than 10 is denoted as B)
CCCN1C(=O)CN(C)C(=O)CNC(=O)[C@H]([C@@H](C)CC)NC(=O)[C@H](CC(C)C)N(C)C(=O)C[C@@H](C(=O)N(C)C)N(C)C(=O)[C@H](C2CCCC2)N(C)C(=O)C2(CCCC2)NC(=O)[C@@H]2CC(F)(F)CN2C(=O)[C@H](CCc2ccc(C(F)(F)F)c(Cl)c2)NC(=O)CN(C)C(=O)[C@@H]1Cc1ccc(C(F)(F)F)cc1 [PP0419] ([NMeL]IG[Sar][NPrPhe(4-CF3)][Sar][hPhe(3-Cl-4-CF3)][Pro(4,4-F2)][Ac5c][NMeGly(cPent)][NMeD]-NMe2; lactam N-11) | C (A compound having a KD ratio of 0.1 or more and less than 3 is denoted as C) | B (a compound having 3 or more and less than 10 is denoted as B)
CCCN1C(=O)CN(C)C(=O)CNC(=O)[C@H]([C@@H](C)CC)NC(=O)[C@H](CC(C)C)N(C)C(=O)C[C@@H](C(=O)N(C)C)N(C)C(=O)[C@H](C2CCCC2)N(C)C(=O)C2(CCC2)NC(=O)[C@@H]2CC(F)(F)CN2C(=O)[C@H](CCc2ccc(C(F)(F)F)c(Cl)c2)NC(=O)CN(C)C(=O)[C@@H]1Cc1ccc(C(F)(F)F)cc1 [PP0420] ([NMeL]IG[Sar][NPrPhe(4-CF3)][Sar][hPhe(3-Cl-4-CF3)][Pro(4,4-F2)][Ac4c][NMeGly(cPent)][NMeD]-NMe2; lactam N-11) | C (A compound having a KD ratio of 0.1 or more and less than 3 is denoted as C) | B (a compound having 3 or more and less than 10 is denoted as B)
CCCN1C(=O)CN(C)C(=O)CNC(=O)[C@H]([C@@H](C)CC)NC(=O)[C@H](CC(C)C)N(C)C(=O)C[C@@H](C(=O)N(C)C)N(C)C(=O)[C@H](C2CCCC2)N(C)C(=O)C2(CCCC2)NC(=O)[C@@H]2C[C@@H](OCC)CN2C(=O)[C@H](CCc2ccc(C(F)(F)F)c(Cl)c2)NC(=O)CN(C)C(=O)[C@@H]1Cc1ccc(C(F)(F)F)cc1 [PP0421] ([NMeL]IG[Sar][NPrPhe(4-CF3)][Sar][hPhe(3-Cl-4-CF3)][Hyp](Et)[Ac5c][NMeGly(cPent)][NMeD]-NMe2; lactam N-11) | C (A compound having a KD ratio of 0.1 or more and less than 3 is denoted as C) | B (a compound having 3 or more and less than 10 is denoted as B)
CCCN1C(=O)CN(C)C(=O)CNC(=O)[C@H]([C@@H](C)CC)NC(=O)[C@H](CC(C)C)N(C)C(=O)C[C@@H](C(=O)N(C)C)N(C)C(=O)[C@H](C2CCCC2)N(C)C(=O)C2(CCC2)NC(=O)[C@@H]2C[C@@H](OCC)CN2C(=O)[C@H](CCc2ccc(C(F)(F)F)c(Cl)c2)NC(=O)CN(C)C(=O)[C@@H]1Cc1ccc(C(F)(F)F)cc1 [PP0422] ([NMeL]IG[Sar][NPrPhe(4-CF3)][Sar][hPhe(3-Cl-4-CF3)][Hyp](Et)[Ac4c][NMeGly(cPent)][NMeD]-NMe2; lactam N-11) | B (a compound having 3 or more and less than 10 is denoted as B) | B (a compound having 3 or more and less than 10 is denoted as B)
CCCN1C(=O)CN(C)C(=O)CN(CC)C(=O)[C@H]([C@@H](C)CC)NC(=O)[C@H](CC(C)C)N(C)C(=O)C[C@@H](C(=O)N(C)C)N(C)C(=O)[C@H](C2CCCC2)N(C)C(=O)C2(CCCC2)NC(=O)[C@@H]2CCCN2C(=O)[C@H](CCc2ccc(C(F)(F)F)c(Cl)c2)NC(=O)CN(C)C(=O)[C@@H]1Cc1ccc(C(F)(F)F)cc1 [PP0423] ([NMeL]I[NEtG][Sar][NPrPhe(4-CF3)][Sar][hPhe(3-Cl-4-CF3)]P[Ac5c][NMeGly(cPent)][NMeD]-NMe2; lactam N-11) | C (A compound having a KD ratio of 0.1 or more and less than 3 is denoted as C) | B (a compound having 3 or more and less than 10 is denoted as B)
CCCN1C(=O)CN(C)C(=O)CN(CC)C(=O)[C@H]([C@@H](C)CC)NC(=O)[C@H](CC(C)C)N(C)C(=O)C[C@@H](C(=O)N(C)C)N(C)C(=O)[C@H](C2CCCC2)N(C)C(=O)C2(CCC2)NC(=O)[C@@H]2CCCN2C(=O)[C@H](CCc2ccc(C(F)(F)F)c(Cl)c2)NC(=O)CN(C)C(=O)[C@@H]1Cc1ccc(C(F)(F)F)cc1 [PP0424] ([NMeL]I[NEtG][Sar][NPrPhe(4-CF3)][Sar][hPhe(3-Cl-4-CF3)]P[Ac4c][NMeGly(cPent)][NMeD]-NMe2; lactam N-11) | C (A compound having a KD ratio of 0.1 or more and less than 3 is denoted as C) | B (a compound having 3 or more and less than 10 is denoted as B)
